# “Also recorded” adds a separate entry of the source.
# Assays:
# [1] = tested on: Caco-2 colorectal cancer cells; experiment: MTT cell viability, Caco-2; type: cell-based; conditions: Homo sapiens, 48 h, mean ± SE
# Experimental: (§1) 3-(4,5-dimethylthiazol-2-yl)-2,5-diphenyltetrazolium bromide (MTT) assay was used to measure cell viability according to a prior study. The cells were grown in 96-well plates at a density of 1 × 10^4 cells/well, treated for 48 h with varied 5a (0–200 µM) or the reference drug DOX (0–100 µM) dosages, and then exposed to analysis. The culture medium was taken out after 48 h of incubation, and the cells were given two gentle washes with 1× ice-cold phosphate-buffered saline (PBS). The MTT (10×) has been diluted to a 1× solution in the culture medium (1 volume 10× MTT in 9 volumes medium) and 200 μl was added to each well. The microplate has been kept in a cell culture incubator at 37 °C for 4 h. Afterthat, 180 μl of the MTT solution was taken out and 100 μl of DMSO was put to each well. The microplate was incubated for 15 min with shaking at room temperature. The absorbance of each well was ultimately measured at 630 nm using a Model 680 microplate reader (Bio-Rad, CA, USA)[33].
# [2] = tested on: MCF-7 breast cancer cells; experiment: MTT cell viability, MCF-7; type: cell-based; conditions: Homo sapiens, MCF7, 48 h, mean ± SE
# Experimental: as §1
# PI3K = experiment: RT-PCR analysis of PI3K gene expression in MCF-7; type: cell-based, human; conditions: MCF-7, IC50 dose, 48 h, vs untreated cells
# Experimental: (§2) The total RNA was isolated from the MCF-7 cells using Trizol (Cat# R2072, ZYMO […] CORP. USA) according to the manufacturer’s instructions. Its quantity and quality were assessed using a Beckman dual spectrophotometer. The cDNA was performed using a miScript Reverse Transcription Kit (QIAGEN) Kit (218061) and a miScript SYBR Green PCR Kit was used for mRNA detection with quantification (218073). Reverse transcription was running on a StepOne system (Applied Biosystems, Foster City, CA, USA) in a total volume of 10 μL containing 5 μL of the miScript RT enzyme and […]. Real-time PCR for mRNA was performed on the same system in a total volume of 20 μL containing 10 μL of a 2× QuantiTect® SYBR Green PCR Master Mix and 10 ng of the cDNA template. The PCR thermal cycling conditions for the mRNA were 2 min at 50 °C, 30 s at 95 °C, 40 cycles of 95 °C for 5 s, and 60 °C for 34 s. The expression of the mRNA target genes was normalized to the expression of human GAPDH quantified using the 2^−ΔΔCt method. Table 1 contains a list of the primers used in the research.
# MCF-7 cells [3] = experiment: Cell morphology by inverted light microscope; type: cell-based, human; conditions: IC50 dose, 48 h
# Experimental: Using an inverted light microscope (Olympus, USA), the morphological alterations of the treated and untreated cells were evaluated and documented after 48 h of incubation.
# [4] = tested on: phospho-RAS-GRF1 (Ser916); experiment: Immunoblotting of p-RAS in MCF-7; type: cell-based, human; conditions: MCF-7, IC50 dose, 48 h, western blot, vs untreated cells
# Experimental: (§3) Western blot analysis was conducted according to[37]. The ReadyPrepTM protein extraction kit (total protein) provided by Bio-Rad Inc (Cat #163-2086) was used to isolate proteins according to the manufacturer’s instructions. The Bradford protein assay kit (SK3041) from Bio Basic Inc. (Markham Ontario L3R 8T4 Canada) was then used to perform quantitative protein analysis. Afterward, a 20 μg protein concentration of each sample was subjected to 12% sodium dodecyl sulfate–polyacrylamide gel electrophoresis (SDS-PAGE), followed by transfer to polyvinylidene fluoride (PVDF) membranes (BioRad). Polyacrylamide gels were performed using the TGX Stain-Free™ FastCast™ Acrylamide Kit (SDS-PAGE) provided by Bio-Rad Laboratories Inc. (Cat # 161-0181). The SDS-PAGE TGX Stain-Free FastCast was prepared according to the manufacturer's instructions. The membrane was blocked in tris-buffered saline with Tween 20 (TBST) buffer and 3% bovine serum albumin (BSA) for 1 h at room temperature followed by probing with primary antibodies against phospho-RAS-GRF1 (Ser916) (1: 1000, Cell Signaling Technology, #3321), phospho-SAPK/JNK (Thr183/Tyr185) (1:1000, Cell Signaling Technology, #9251), p53 (1:1000, Cell Signaling Technology, #9282) and β-actin (1:3000, Cell Signaling Technology, #8457). […]
# [5] = tested on: phospho-SAPK/JNK (Thr183/Tyr185); experiment: Immunoblotting of p-JNK in MCF-7; type: cell-based, human; conditions: MCF-7, IC50 dose, 48 h, western blot, vs untreated cells
# Experimental: as §3
# [6] = tested on: PANC-1 pancreatic cancer cells; experiment: MTT cell viability, PANC-1; type: cell-based; conditions: Homo sapiens, 48 h, mean ± SE
# Experimental: as §1
# [7] = tested on: normal human amniotic WISH cells; experiment: MTT cell viability, normal WISH cells; type: cell-based; conditions: 48 h, mean ± SE, read-out: IC50, normal cell line (WISH)
# Experimental: as §1
# [8] = tested on: MDA-MB-231 breast cancer cells; experiment: MTT cell viability, MDA-MB-231; type: cell-based; conditions: Homo sapiens, 48 h, mean ± SE
# Experimental: as §1
# MCF-7 cells [9] = experiment: Cell cycle analysis by flow cytometry (PI); type: cell-based, human; conditions: MCF-7, IC50 dose, 48 h; untreated control 8.6%
# Experimental: Using flow cytometry, cell cycle analysis was carried out via a documented method of[35] with a few changes. After trypsinization, the MCF-7 cells were centrifuged at 4500 rpm for 5 min, followed by two washings, resuspension in 1× PBS, fixation with ice-cold absolute ethanol, and incubation at 20 °C for 24 h. Following two PBS washes, the cells were then resuspended in (0.05 mg/mL) propidium iodide (PI)[32] solution containing 50 µL (0.2 mg/mL) of RNase A, and 0.1% v/v Triton X-100 in PBS. Then, the cells were incubated at room temperature for 30–60 min in the dark. Finally, the pellet was washed with 1⤫ PBS and resuspended in 300 µL 1× PBS, and subjected to analysis on Accuri C6 flow cytometer (Becton Dickinson, Franklin Lake, BD, USA) equipped with PE X FL2 channels.
# p53 = experiment: Immunoblotting of p53 in MCF-7; type: cell-based, human; conditions: MCF-7, IC50 dose, 48 h, immunoblot, vs untreated cells
# Experimental: as §3
# Akt = experiment: RT-PCR analysis of Akt gene expression in MCF-7; type: cell-based, human; conditions: MCF-7, IC50 dose, 48 h, vs untreated cells
# Experimental: as §2
# p21 = experiment: RT-PCR analysis of p21 gene expression in MCF-7; type: cell-based, human; conditions: MCF-7, IC50 dose, 48 h, vs untreated cells
# Experimental: as §2
SMILES,IC50 [1],IC50 [2],mRNA transcript level of PI3K (PI3K),Morphological features of MCF-7 cells (MCF-7 cells [3]),levels of p-RAS proteins [4],p-JNK protein expression [5],IC50 [6],IC50 [7],IC50 [8],Percentage of cells at sub-G0/G1 (MCF-7 cells [9]),p53 protein expression (p53),mRNA transcript level of Akt (Akt),p21 gene expression (p21),melting point
"COc1cc(C2CC(C3=C(C)NC(=S)NC3c3ccc(N(C)C)cc3)=NN2c2ccccc2)ccc1O (stereo not shown) [compound 5a, 4-(4-(dimethylamino)phenyl)-5-(5-(4-hydroxy-3-methoxyphenyl)-1-phenyl-4,5-dihydro-1H-pyrazol-3-yl)-6-methyl-3,4-dihydropyrimidine-2(1H)-thione]",14.8 ± 2.5 µM,2.62 ± 1.6 µM,significantly reduced; also recorded: downregulated,detectable morphological signs of apoptosis,significantly decreased,significant reduction,23.6 ± 2.4 µM,180 ± 2.7 µM,6.78 ± 2.2 µM,48.5%,significant elevation,significantly reduced; also recorded: downregulated,significantly upregulated,
"COc1cc(/C=C/C(=O)C2=C(C)NC(=S)NC2c2cccs2)ccc1O (stereo not shown) [2b, [E]-3-(4-hydroxy-3-methoxyphenyl)-1-(6-methyl-4-(thiophen-2-yl)-2-thioxo-1,2,3,4-tetrahydropyrimidin-5-yl)prop-2-en-1-one]",,,,,,,,,,,,,,258 °C
"COc1cccc2c1C(=O)c1c(O)c3c(c(O)c1C2=O)C[C@@](O)(C(=O)CO)C[C@@H]3O[C@H]1C[C@H](N)[C@H](O)[C@H](C)O1 [DOX, Doxorubicin, reference compound]",,2.26 ± 1.4 µM,,,,,,24.5 ± 2.1 µM,,,,,,
